# Source: patent publication US20040235717A1, “Suppression of androgen receptor transactivation through new pathways to ar and ar coactivators and repressors” (priority 2001, published 2004)
# Entries after “also recorded” stand apart in the source; their conditions may differ.
# Tests used:
# Akt = Akt activity in LNCaP cells, Western blot with phospho-Akt (Ser473) antibody; assay type: cell-based; conditions: LNCaP cells stably transfected with dAkt
# Experimental: (§1) 18. […] (A) Akt suppressed androgen/AR-induced p21 promoter activity. […] (B) Androgen/AR-induced PC-3(AR)6 apoptosis and p21 protein expression was blocked by Akt PC-3(AR)6 was transfected with pCDNA3, cAkt, or dAkt, as indicated, for 16 h. […] (C) AR-induced p21 protein expression was enhanced by dAkt in LNCaP cells. […] LNCaP stable transfection with dAkt was confirmed by western blot assay using phospho-Akt (Ser473) antibody. […] TPA was then added for another 24 h and cell apoptosis was determined by TUNEL assay. […] IGF-1 was added for another 30 min, followed by 10 nM TPA treatment for another 24 h. The apoptosis was determined by TUNEL assay. The data are means±s.d. from three independent experiments.
# 31. […] (D) The LNCaP cells were transfected with plasmids as indicated for 16 h, and the medium was changed to 0.1% CDS media for 2 days. The cell apoptosis was determined by TUNEL assay (E) The LNCaP cells were transfected with plasmids as indicated for 16 h, harvested, and the cell extracts were subjected to SDS-PAGE. The Akt activity was determined by Western blotting using phospho(S473)-Akt antibody. (F) The U87MG cells were transfected with plasmids as indicated for 16 h, and the medium was changed 0.1% CDS media for 2 days. The cell apoptosis was determined by TUNEL assay. Data for luciferase activity and apoptosis are means±s.d. from three independent experiments.
# AR transactivation [1] = assay: AR transactivation, MMTV-CAT reporter in DU145 cells transfected with AR; assay type: cell-based, human
# Description: 250. To dissect the divergent effects of IL-6 in prostate tumor growth, Qui, Y. et al., Nature 393, 83-85 (1998); Hobisch, A. et al., Cancer Res. 58, 4640-4645 (1998); Ritchie, C. K. et al., Endocrinology 138, 1145-1150 (1997), the potential influences of IL-6 on the transactivation of AR, the master regulator of the prostate tumor growth were studied. Chang, C. et al., Science 240, 324.326 (1988); Chang, C. et al., Crit. Rev. Eukaryotic Gene Expression 5, 97-125 (1995). Because IL-6 has two major signal cascades, mitogen-activated protein kinase (MAPK) and phosphatidylinositol 3-kinase (PI3K), Qui, Y. et al., Nature 393, 83-85 (1998); Qui, Y. et al., Proc. Natl. Acad. Sci. USA 95, 3644-3649 (1998), inhibitors were applied to specifically block one of these two IL-6 signal pathways. DU145 cells were transfected for 24 h with AR and MMTV-CAT reporter gene. After transfection, the cells were serum starved for 24 h. Next, 20 μM LY294002, P098059 or vehicle was added to serum-free medium 30 min prior to IL-6 treatment. […] The cells were then harvested and AR transactivation was measured by CAT activity. […] Vlahos, C. J. et al., J. Biol. Chem. 269, 5241-5148 (1994). […] Alessi, D. R. et al., J. Biol. Chem. 270, 27489-27494 (1995).
# 251. IL-6's effect on PI3K activity was tested. After serum starvation for 24 h, LNCaP, PC-3 or DU145 cells were treated with 50 μg/ml IL-6 for 30 minutes. The cells were then harvested. PI3K activity was measured by using phosphatidylinositol (PT) as a substrate. […] The transactivation was measured by CAT activity.
# 252. Focus then turned to the two major downstream effectors of PI3K: a serine/threonine kinase (Akt/PKB) and a ribosomal S6 kinase (p70S6k). Franke, T. F. et al., Cell 88,435-437 (1997). […] The transactivation activity was determined after 24 h transfection.
# 262. The DU145 and PC-3 cells were maintained in Dulbecco's Minimum Essential Medium (DMEM) containing penicillin (25 μg/m1), streptomycin (25 μg/ml), and 5% fetal calf serum (FCS). The LNCaP cells were maintained in RPMI-1640 with 10% FCS. Transfections were performed using the calcium phosphate precipitation method, as previously described. Yeh, S. et al., Proc. Natl. Acad. Sci. USA 93, 5517-5521(1996).
# 277. The DU145 and PC-3 cells were maintained in Dulbecco's Minimum Essential Medium (DMEM) containing penicillin (25 U/ml), streptomycin (25 μg/ml), and 5% fetal calf serum (FCS). The LNCaP cells were maintained in RPMI-1640-10% FCS. Transfections were performed using the calcium phosphate precipitation method in PC-3 and DU145, as previously described. Yeh, S., Lin, H. K., Kang, H. Y., Thin, T. H., Lin, M. F. & Chang, C. (1999) Proc Natl Acad Sci U S A 96, 5458-63. LNCaP cells were transfected using SuperFect™ according to standard procedures (Qiagen).
# p21 expression = assay: p21 promoter activity (luciferase) and p21 protein expression; assay type: cell-based
# Experimental: as §1
# [2] = test system: estrogen receptor (ER) transactivation; assay: ER transactivation, ERE-luc in PC-3 cells transfected with ERα; assay type: cell-based, human; conditions: 10 nM E2
# Experimental: 26. […] The cells were harvested and assayed for luciferase activity using MMTV-luc as a reporter. […] The cells were harvested for Northern blot analysis. […] The cells were harvested and assayed for the luciferase activity. […] (E) The PC-3 cells were transfected with ERα along with plasmids, as indicated, using ERE-luc as a reporter for 16 h, followed by 10 nM E2 treatment for another 16 h. The cells were harvested for luciferase assay. Data are means±s.d. from three independent experiments.
# 312. […] The cells were lysed and the luciferase activity was detected by the dual luciferase assay according to standard procedures.
# AR transactivation [3] = assay: AR transactivation, MMTV-luc / (ARE)4-luc luciferase reporter assay; assay type: cell-based; conditions: LNCaP; MMTV-luc and (ARE)4-luc; 10 nM DHT
substance,measurement,setting,value
"dAkt: dominant-negative Akt, a kinase deficient mutant, K179A",Reduction in Akt activity,Akt,50%
same,Effect on DHT-induced AR transactivation (CAT activity),AR transactivation [1]; presence of androgen,induce AR transactivation in a dose-dependent manner; also recorded: induce wtAR transactivation in a dose-dependent manner
same,Effect on p110/p110*-repressed AR transactivation,"AR transactivation [1]; rapamycin 20 nM 30 min prior to 1 nM DHT, dAkt co-transfected",reversed the p110-repressed AR transactivation; also recorded: reversed this p110*-repressed AR transactivation
same,p21 expression in response to androgen,"p21 expression; LNCaP stably transfected with dAkt, 10 nM DHT 2 days, 2.5 fold without dAkt",14.5 fold
same,Effect on androgen/AR-induced p21 expression,"p21 expression; PC-3 cells, transfected",enhanced p21 expression in a dose-dependent manner
same,Effect on ER transactivation,[2],suppressed ER transactivation
same,Effect on AR transactivation,AR transactivation [3],enhanced AR transactivation in both MMTV-Luc and (ARE)4-Luc
